From US5798391A, “Injectable solution of benzalkonium fluoride” (Aromafarm Limited, priority 1994, dated 1998)
Like-named read-outs stand apart in the source and are kept apart here.

How the values were obtained:
[1] = test system: E[…] 1; type: cell-based, polio enterovirus 1, SABIN strain; settings: 32° C.
[2] = test system: HERPES SIMPLEX VIRUS TYPE 1; test: virucidal activity of BKF, AFNOR T72-180, molecular screening (Table 4); type: cell-based, Herpes Simplex Virus Type 1 (HSV 1); settings: 32° C.
[3] = test system: HIV-1 virus (LAI strain); test: residual infectiousness of treated HIV-1 on activated human lymphocytes, reverse transcriptase activity; type: cell-based, HIV-1 (LAI strain)
[4] = test system: activated human PBMC lymphocytes; test: toxicity of residual BKF (sample REV4) on infectiousness test cells; type: cell-based; settings: REV4: BKF 20 μg/ml diluted in NTE buffer and centrifuged
[5] = test system: mice; test: LD 50, unique administration, Behrens and Karber method, mice; type: in vivo, albino mouse
Experimental: (§1) The high toxicity of benzalkonium fluoride in unique administration in mice and guinea pigs was determined by the Behrens and Karber method, by intracardiac, intravenous and intraperitoneal injection. The animals used were young adult albino mice and albino guinea pigs. Ten animals were used for each dose administered, five males and five females. The benzalkonium fluoride was used in a 3 g/l isotonic solution of sterile apyrogenic sodium chloride. We observed the animals for 7 days after unique administration carried out using a sterile needle adapted to a syringe graduated in 1/10 ml to allow the treatment of each animal with an exact dose. The animals were weighed each day during the observation period.
(§2) The LD 50 (lethal dose 50) was determined.

[6] = test system: guinea pigs; test: LD 50, unique administration, Behrens and Karber method, guinea pigs; type: in vivo, albino guinea pig
Experimental: as §1, §2

[7] = test system: Carre's disease; test: treatment of dogs suffering from Carre's disease; type: in vivo, dog
Experimental: The invention was used to treat dogs suffering from Carre's disease. This disease, considered fatal and without treatment, is due to an ultravirus.
Twelve dogs were treated with one 10 ml ampoule of benzalkonium fluoride solution at 2.1 g/l for 20 kg of animal. The injection was given once per day for three days. The dogs also had associated treatment (vitamins, antibiotics, vaccines, etc.).

[8] = test system: mycobacterium tuberculosis (wild strain); test: activity in vitro on mycobacterium tuberculosis, B[…] medium surface impregnation method; type: cell-based; set-up: key to culture of Bacterium Tuberculosis: (+++): positive culture; (-): negative culture
Experimental: We determined the activity in vitro of benzalkonium fluoride on the mycobacterium tuberculosis (wild strain).
This experiment was carried out with the B[…] medium surface impregnation method. The quantity of active substance absorbed by the medium is expressed in cm^2.
The volume of the appropriate dilution of benzalkonium fluoride was 0.25 ml per tube of medium in order to arrive at concentrations of benzalkonium fluoride of 0.1, 0.2 and 0.3% per cm^2 surface of B[…] medium.
A control tube, without benzalkonium fluoride, was used for each of the series.
Three series of tests were carried out with dilutions of 0.1, 0.01 and 0.001 of the mother solution of the Bacterium Tuberculosis strain prepared at 1 mg/ml.
All the tests were carried out in double.

[9] = test system: VERO, KB and MCR-5 cells
[10] = test system: dogs (beagles); settings: dog, in vivo
[11] = test system: parvovirus
[12] = test system: guinea pig blood; test: in vitro haemolysis of total blood, guinea pig
[13] = test system: patient's blood; test: haemolytic concentration on AIDS patients' blood before injection; settings: solution used 2.1 g/l
[14] = test system: dogs (beagles); test: local and general tolerance of intravenous administration in dogs, 28 days; settings: injected intravenously
[15] = test system: AIDS; settings: person
[16] = female German Pointer 12 kg, same treatment

CCCCCCCCCCCCCC[N+](C)(C)Cc1ccccc1.[F-] [benzalkonium fluoride, tetradecyl-dimethyl-benzyl-ammonium fluoride]
virucidal activity: minimal contact time ([1]; 0.01% (m/V)): 30 min
Viral Titration ([1]; 0.01% (m/V), 30 minutes): 0 PFU/ml
Viral Titration ([1]; 0.01% (m/V), 60 minutes): 0 PFU/ml
Viral Titration ([1]; 0.01% (m/V), 120 minutes): 0 PFU/ml
Viral Titration ([1]; 0.02% (m/V), 120 minutes): 0 PFU/ml
virucidal activity: minimal concentration (reduction by logarithmic factor of at least 4) ([1]; 30 minutes contact): 0.01 % (m/V)
virucidal activity: minimal contact time ([2]; 0.01% (m/V)): 5 min
Viral Titration ([2]; 0.01% (m/V), 30 minutes): 0 PFU/ml
Viral Titration ([2]; 0.01% (m/V), 60 minutes): 0 PFU/ml
Viral Titration ([2]; 0.01% (m/V), 120 minutes): 0 PFU/ml
Viral Titration ([2]; 0.02% (m/V), 15 minutes): 0 PFU/ml
Viral Titration ([2]; 0.02% (m/V), 30 minutes): 0 PFU/ml
Viral Titration ([2]; 0.02% (m/V), 60 minutes): 0 PFU/ml
Viral Titration ([2]; 0.02% (m/V), 120 minutes): 0 PFU/ml
virucidal activity: minimal concentration (reduction by logarithmic factor of at least 4) ([2]; 5 minutes contact): 0.01 % (m/V)
RT activity in culture supernatants ([3]; 1/2 dilution of virus treated with BKF, second experiment (FIG. 2)): No RT activity was detected
reverse transcriptase activity in culture supernatants ([3]; 1/10 dilution of virus treated with BKF 20 μg/ml for 30 or 60 minutes (FIG. 1)): no reverse transcriptase activity is revealed
log reduction at 20 µg/mL ([3]; Human immunodeficiency virus 1, Lymphocyte, 20 μg/ml, activated human lymphocytes, read-out: loss of infectious capacity in the HIV-1 virus): 5
toxicity for the infectiousness test cells [4]: not toxic
LD 50 ([5]; female mouse, intraperitoneal): 34.60 mg/mL
LD 50 ([5]; female mouse, intravenous): 36.60 mg/mL
acute toxicity, overall ([5]; intravenous, intraperitoneal or intracardiac injection, mice and guinea pigs): sufficiently low toxicity
LD 50 ([5]; male mouse, intraperitoneal): 33.10 mg/mL
LD 50 ([5]; male mouse, intravenous): 33.24 mg/mL
LD 50 ([6]; female guinea pig, intracardiac): 16.50 mg/mL
LD 50 ([6]; female guinea pig, intraperitoneal): 20.50 mg/mL
LD 50 ([6]; male guinea pig, intracardiac): 15.50 mg/mL
LD 50 ([6]; male guinea pig, intraperitoneal): 28.50 mg/mL
dogs with nervous symptoms ([7]; five other dogs, generalised trembling): could not be treated
dogs saved ([7]; of twelve dogs, 10 ml of 2.1 g/l per 20 kg once per day, three days, associated treatment): effective for seven dogs who were saved
total recovery ([7]; seven dogs saved): 18 days
inhibition of the culture ([8]; 0.1, 0.2 and 0.3% per cm^2, dilutions 0.1, 0.01 and 0.001, four weeks at 37° C.): an inhibition of the culture
culture of Bacterium Tuberculosis ([8]; BKF 0.1%/cm^2, BK dilution 0.001, in double): (-)
culture of Bacterium Tuberculosis ([8]; BKF 0.1%/cm^2, BK dilution 0.01, in double): (-)
culture of Bacterium Tuberculosis ([8]; BKF 0.1%/cm^2, BK dilution 0.1, in double): (-)
culture of Bacterium Tuberculosis ([8]; BKF 0.2%/cm^2, BK dilution 0.001, in double): (-)
culture of Bacterium Tuberculosis ([8]; BKF 0.2%/cm^2, BK dilution 0.01, in double): (-)
culture of Bacterium Tuberculosis ([8]; BKF 0.2%/cm^2, BK dilution 0.1, in double): (-)
culture of Bacterium Tuberculosis ([8]; BKF 0.3%/cm^2, BK dilution 0.001, in double): (-)
culture of Bacterium Tuberculosis ([8]; BKF 0.3%/cm^2, BK dilution 0.01, in double): (-)
culture of Bacterium Tuberculosis ([8]; BKF 0.3%/cm^2, BK dilution 0.1, in double): (-)
toxicity threshold (D.L.0) ([9]; after filtration): 0.01%
toxicity threshold (D.L.0) ([9]; before filtration): 0.05%
blood in the urine, male [10]: a high level of blood in the urine
blood in urine from bladder, male [10]: no trace of blood
blood in urine, male [10]: absence of blood
glucose in urine, male [10]: absence of glucose
haemolysis in urine samples, female [10]: no signs of h.ae butted.molysis
histological examination of the various organs [10]: no alteration due to treatment
ketonic bodies in urine, male [10]: traces of ketonic bodies
number of leukocytes [10]: increased
proteins in urine, male [10]: traces of proteins
urine sodium and potassium, female [10]: remained almost stable
urine sodium and potassium, male [10]: showed variations
tolerance ([11]; dog, in vivo): excellent
normal eating [11, 16]: 4 days
total recovery confirmed [11, 16]: 18 days
total recovery ([11]; female German Shepherd 10 kg, 10 ml then 20 ml, associated treatment 8 days): 20 days
complete recovery ([11]; female Rottweiler 15 kg, two injections of 10 ml, 12 h apart): 18 days
recovery, days after start of treatment ([11]; male German Shepherd 20 kg, two injections at 12 h interval, 2.1 g/l): 6 days
normal eating ([11]; male Newfoundland 28 kg, after four days): eating normally
blood in urine and vomiting ([11]; male Newfoundland 28 kg, two injections of 10 ml, end of second day): the blood had disappeared from the urine and the dog no longer vomited
death ([11]; three puppies with violent evolutive gastro-enteritis, two injections at 12 h interval): Death occurred within two days
haemolysis (degree of red colouring) ([12]; 37.5 ppm or mg/l): 0
haemolysis (degree of red colouring) ([12]; 75 ppm or mg/l): +
haemolysis (degree of red colouring) ([12]; 150 ppm or mg/l): ++++
haemolytic concentration on patient's blood [13]: well above that of the solution used
toxic effect, overall [14]: no remarkable toxic effect
pain at the injection point ([15]; 50 ml at 2.1 g/l every twelve hours, end of second cure): pain at the injection point
number of CD4 ([15]; after treatment, before: less than 200): 600
general state ([15]; fourth month): returned to a normal general state
general state ([15]; one month and seven months after treatment): a good general state
fever ([15]; sixth day, 50 ml at 2.1 g/l every eight hours, three days, with Doxycycline): the fever had disappeared
fever, vomiting and diarrhoea ([15]; tenth day): disappearance of the fever, vomiting and diarrhoea
general state ([15]; tenth day, two cures of three days): a clear improvement in the general state
weight after gain ([15]; tenth day, before 57 kg): 59.6 kg
fever ([15]; third day, 2.1 g/l every twelve hours): a clear fall in the fever
clinical symptoms ([15]; three and a half months): no clinical symptoms
general state ([15]; three and a half months): a good general state
weight ([15]; three and a half months, before 52 kg): 56 kg
number of CD4 ([15]; three and a half months, before 200): 700
mobility ([15]; totally bedridden before): could get up and walk
asthenia ([15]; two months after start): progressive disappearance of the asthenia
